Source: US7737127B2, “2-propynyl adenosine analogs having A2A agonist activity and compositions thereof” (University of Virginia Patent Foundation, priority 2001, dated 2010)
Read-outs that look alike come from different tables or passages of the source.

How the values were obtained:
human neutrophils = assay: Human neutrophil oxidative activity, luminol-enhanced chemiluminescence; assay type: cell-based
Description: Chemiluminescence Methods: Lumninol enhanced chemiluminescence, a measure of neutrophil oxidative activity, is dependent upon both superoxide production and mobilization of the granule enzyme myeloperoxidase. The light is emitted from unstable high-energy oxygen species such as hypochlorous acid and singlet oxygen generated by activated neutrophils.
The plate was incubated 5 min (37 C) and then fMLP (50 l in HA; final concentration […]) was added to all wells.
Data are presented as peak chemiluminescence as percent of activity in the absence of an adenosine agonist. The EC50 was determined using PRISM software. All compounds were tested with PMNs from three separate donors.
Lummol-enhanced chemiluminescence, a measure of neutrophil oxidative activity, is dependent upon both superoxide production and mobilization of the lysosomal granule enzyme myeloperoxidase. The light is emitted from unstable high-energy oxygen species generated by activated neutrophils. Purified neutrophils (5-10×10^5/ml) were incubated in Hanks balanced salt solution containing 0.1% human serum albumin (1 ml) with the tested A2A agonist with or without rolipram and with or without tumor necrosis factor-alpha (1 U/ml) for 30 minutes at 37° C. in a shaking water bath. […] Chemiluminescence is reported as relative peak light emitted (=height of the curve) compared to samples with tumor necrosis factor-alpha and without agonist or rolipram.

human A1 AR = biological target: T1, human A1 AR (Homo sapiens, UniProt P30542); assay: Radioligand competition binding (125I-ABA) to human A1 AR in CHO K1 cell membranes; conditions: for Ki: Ki from competition binding, 125I-ABA, CHO K1 cell membranes; for A1/A2A: selectivity ratio A1 over A2A
T1 sequence (P30542 1-326): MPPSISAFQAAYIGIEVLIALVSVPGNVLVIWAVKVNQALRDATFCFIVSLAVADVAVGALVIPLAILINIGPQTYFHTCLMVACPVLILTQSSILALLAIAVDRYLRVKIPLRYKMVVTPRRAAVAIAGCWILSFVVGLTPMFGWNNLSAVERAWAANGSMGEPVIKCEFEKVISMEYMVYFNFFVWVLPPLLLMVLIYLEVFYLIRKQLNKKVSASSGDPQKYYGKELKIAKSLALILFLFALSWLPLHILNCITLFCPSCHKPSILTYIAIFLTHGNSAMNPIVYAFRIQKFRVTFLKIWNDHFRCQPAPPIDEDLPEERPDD

A3 AR = biological target: T2, A3 AR (Homo sapiens, UniProt P0DMS8); assay: Radioligand competition binding (125I-ABA) to human A3 AR in HEK 293 cell membranes; conditions: for Ki: Ki from competition binding, 125I-ABA, HEK 293 cell membranes; for A3/A2A: selectivity ratio A3 over A2A
T2 sequence (P0DMS8 1-318): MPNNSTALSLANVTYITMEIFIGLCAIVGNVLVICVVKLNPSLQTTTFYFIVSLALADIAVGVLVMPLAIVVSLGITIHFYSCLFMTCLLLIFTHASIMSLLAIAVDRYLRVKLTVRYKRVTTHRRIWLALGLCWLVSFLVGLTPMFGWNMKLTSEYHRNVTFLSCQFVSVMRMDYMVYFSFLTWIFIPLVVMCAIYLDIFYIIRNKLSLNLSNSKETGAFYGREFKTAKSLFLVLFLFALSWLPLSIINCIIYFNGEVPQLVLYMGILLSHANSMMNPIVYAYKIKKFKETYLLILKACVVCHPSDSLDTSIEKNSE

[1] = biological target: recombinant human A2A receptors (Homo sapiens, UniProt P29274); assay: Radioligand competition binding to recombinant human A2A receptors in Sf9 cell membranes
[2] = Homo sapiens, Neutrophil, human neutrophil experiment w/o Rolipram, read-out: PMN oxid (-log EC50) (converted)
[3] = human neutrophil experiment w/Rolipram
[4] = A2A ± SEM, Ki from competition binding, Sf9 cell membranes
[5] = human neutrophil experiment w/o Rolipram, read-out: PMN oxid (-log EC50) (converted)

Sequence of recombinant human A2A receptors (P29274 whole entry): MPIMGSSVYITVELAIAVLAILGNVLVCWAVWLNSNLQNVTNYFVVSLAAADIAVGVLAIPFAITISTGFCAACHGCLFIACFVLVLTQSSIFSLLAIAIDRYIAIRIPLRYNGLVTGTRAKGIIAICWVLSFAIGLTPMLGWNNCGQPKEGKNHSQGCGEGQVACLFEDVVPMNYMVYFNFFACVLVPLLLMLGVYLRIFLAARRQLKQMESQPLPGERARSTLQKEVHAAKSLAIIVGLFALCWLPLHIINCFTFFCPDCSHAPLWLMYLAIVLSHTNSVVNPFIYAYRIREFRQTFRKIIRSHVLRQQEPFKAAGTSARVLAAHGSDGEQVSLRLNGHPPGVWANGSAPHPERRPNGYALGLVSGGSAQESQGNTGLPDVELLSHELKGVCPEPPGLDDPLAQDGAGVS

SMILES	EC50 (human neutrophils; [2]) [nM]	PMN oxid + roli (-log EC50) (human neutrophils; [3])	Ki (human A1 AR; A1 ± SEM) [nM]	A1/A2A (human A1 AR)	Ki (A3 AR; A3 ± SEM) [nM]	A3/A2A (A3 AR)	Ki [1, 4] [nM]	further results
CCNC(=O)[C@H]1O[C@@H](n2cnc3c(N)nc(C#CCC4CCC(C(=O)OC)CC4)nc32)C(O)C1O (stereo in doubt) [ATL-146e, 4-{3-[6-Amino-9-(5-ethylcarbamoyl-3,4-dihydroxytetrahydrofuran-2-yl)-9H-purin-2-yl]-prop-2-ynyl}-cyclohexanecarboxylic acid methyl ester]	–	9.33	77 ± 12	154.0	45 ± 15	90.0	–	EC50 (human neutrophils; [5]): 3.55 nM
CCNC(=O)[C@H]1O[C@@H](n2cnc3c(N)nc(C#CCC4CCC(C(=O)OCCNC(=O)OC(C)(C)C)CC4)nc32)C(O)C1O (stereo in doubt) [JR-3021, 4-{3-[6-Amino-9-(5-ethylcarbamoyl-3,4-dihydroxy-tetrahydrofuran-2-yl)-9H-purin-2-yl]-prop-2-ynyl}-cyclohexanecarboxylic acid 2-tert-butoxycarbonylamino-ethyl ester]	26.3	8.58	107 ± 10	66.9	41 ± 1	25.6	1.6 ± 0.5	–
OC[C@H]1O[C@@H](n2cnc3c(NC4CCCC4)nc(Cl)nc32)[C@H](O)[C@@H]1O [CCPA, 2-chloro-N^6-cyclopentyladenosine, reference compound]	–	7.26	–	–	–	–	–	EC50 (human neutrophils; [5]): 4270 nM
CNC(=O)[C@H]1O[C@@H](n2cnc3c(NCc4cccc(I)c4)ncnc32)[C@H](O)[C@@H]1O [IBMECA, N^6-3-iodobenzyladenosine-5′-N-methyluronamide, reference compound]	–	8.01	–	–	–	–	–	EC50 (human neutrophils; [5]): 324 nM
OC[C@H]1O[C@@H](n2cnc3c(NC4CCCC4)ncnc32)[C@H](O)[C@@H]1O [CPA, N^6-cyclopentyladenosine, reference compound]	93300	7.06	–	–	93 ± 7	–	–	Ki ([1]; A2A ± SEM): 19.8 ± 3.2 nM
CCNC(=O)[C@H]1O[C@@H](n2cnc3c(N)nc(C#CC[C@H]4CC[C@H](COC(=O)OCC(C)C)CC4)nc32)C(O)C1O (stereo partly drawn) [ATL215, N-Ethyl 2-{3-[trans-4-(isobutoxyoxycarbonyloxamethyl)-cyclohexyl]-1-propyn-1-yl}adenosine-5′-uronamide]	20	–	–	–	–	–	4.8	–
CCNC(=O)[C@H]1O[C@@H](n2cnc3c(N)nc(NCCc4ccc(CCC(=O)O)cc4)nc32)[C@H](O)[C@@H]1O [CGS-21680, 2-[4-(2-carboxyethyl)phenethylamino]-5′-N-ethyl-carboxamidoadenosine, reference compound]	30.2	–	–	–	–	–	–	EC50 (human neutrophils; Homo sapiens, Neutrophil, human neutrophil experiment w/Rolipram, read-out: PMN oxid + roli (-log EC50) (converted)): 2.82 nM
CNC(=O)[C@H]1O[C@@H](n2cnc3c(NCc4cccc(I)c4)nc(Cl)nc32)[C@H](O)[C@@H]1O [CI-IBMECA, N^6-3-iodo-2-chlorobenzyladenosine-5′-N-methyluronamide, reference compound]	–	–	–	–	–	–	–	EC50 (human neutrophils; [5]): 45700 nM
CCNC(=O)[C@H]1O[C@@H](n2cnc3c(N)ncnc32)[C@H](O)[C@@H]1O [NECA, 5′-N-ethylcarboxamidoadenosine, reference compound]	–	8.95	–	–	–	–	–	EC50 (human neutrophils; [5]): 15.1 nM

The next lines start with results.

EC50 (human neutrophils; [2]) [nM]	PMN oxid + roli (-log EC50) (human neutrophils; [3])	Ki (human A1 AR; A1 ± SEM) [nM]	A1/A2A (human A1 AR)	Ki (A3 AR; A3 ± SEM) [nM]	A3/A2A (A3 AR)	Ki [1, 4] [nM]	SMILES	further results
2.19	9.63	3.8 ± 0.4	7.0	7.3 ± 1.9	13.5	0.5 ± 0.05	CCNC(=O)[C@H]1O[C@@H](n2cnc3c(N)nc(C#CC4(O)CCC(CC)CC4)nc32)C(O)C1O (stereo in doubt) [JR-3149, 5-[6-Amino-2-(4-ethyl-1-hydroxy-cyclohexylethynyl)-purin-9-yl]-3,4-dihydroxytetrahydrofuran-2-carboxylic acid ethylamide]	–
1.26	9.6	5 ± 1.3	–	3.5 ± 1.2	–	–	CCNC(=O)[C@H]1O[C@@H](n2cnc3c(N)nc(C#CC4(O)CCCC4)nc32)C(O)C1O (stereo in doubt) [JR-3135, 5-[6-Amino-2-(1-hydroxy-cyclopentylethynyl)-purin-9-yl]-3,4-dihydroxytetrahydrofuran-2-carboxylic acid ethylamide]	–
13	–	–	–	–	–	2.7	CCNC(=O)[C@H]1O[C@@H](n2cnc3c(N)nc(C#CC[C@H]4CC[C@H](COC(=O)OCc5ccccc5)CC4)nc32)C(O)C1O (stereo partly drawn) [ATL216, N-Ethyl 2-{3-[trans-4-(benzoxycarbonyloxamethyl)-cyclohexyl]-1-propyn-1-yl}adenosine-5′-uronamide]	–
102	8.29	55 ± 13	15.3	28 ± 13	7.8	3.6 ± 0.5	CCNC(=O)[C@H]1O[C@@H](n2cnc3c(N)nc(C#CCC4CCC(C(=O)NC)CC4)nc32)C(O)C1O (stereo in doubt) [JR-3065, 5-{6-Amino-2-[3-(4-methylcarbamoyl-cyclohexyl)-prop-1-ynyl]-purin-9-yl}-3,4-dihydroxytetrahydrofuran-2-carboxylic acid ethylamide]	–
–	8.57	–	42.2	–	150.7	–	COC(=O)C1CCC(CC#Cc2nc(N)c3ncn(C4OC(CO)C(O)C4O)c3n2)CC1 (centres unmarked) [JR-2145]	PMN oxid (-log EC50) (human neutrophils; human neutrophil experiment w/o Rolipram): 7.19; Ki (human A1 AR; read-out: A1 ± SEM): 28.3 ± 7.3 nM; Ki (A3 AR; read-out: A3 ± SEM): 101 ± 22 nM; Ki ([1]; read-out: A2A ± SEM, Ki from competition binding, Sf9 cell membranes): 0.7 ± 0.16 nM
3.09	9.46	71 ± 14	64.5	231 ± 91	210.0	1.1 ± 0.2	CCNC(=O)[C@H]1O[C@@H](n2cnc3c(N)nc(C#CCC4CCC(COC(C)=O)CC4)nc32)C(O)C1O (stereo in doubt) [ATL-193, Acetic acid 4-{3-[6-amino-9-(5-ethylcarbamoyl-3,4-dihydroxytetrahydrofuran-2-yl)-9H-purin-2-yl]-prop-2-ynyl}-cyclohexylmethyl ester]	–
2.24	–	134	106.0	68.6	54.4	1.26 ± 0.21	CCNC(=O)[C@H]1O[C@@H](n2cnc3c(N)nc(C#CCC4CCN(C(=O)OCC)CC4)nc32)C(O)C1O (stereo in doubt) [JR-3269, 4-{3-[6-Amino-9-(5-ethylcarbamoyl-3,4-dihydroxytetrahydrofuran-2-yl)-9H-purin-2-yl]-prop-2-ynyl}-piperidine-1-carboxylic acid ethyl ester]	–
2	–	100	125	100	125	0.8	CCNC(=O)[C@H]1O[C@@H](n2cnc3c(N)nc(C#CC[C@H]4CC[C@H](COC(=O)OC)CC4)nc32)C(O)C1O (stereo partly drawn) [ATL214, N-Ethyl 2-{3-[trans-4-(methoxycarbonyloxymethyl)-cyclohexyl]-1-propyn-1-yl}adenosine-5′-uronamide]	–
–	–	–	0.0	–	0.0	–	CCNC(=O)[C@H]1O[C@@H](n2cnc3c(N)nc(C#CCN4CC5CC4CN5C(=O)OC(C)(C)C)nc32)C(O)C1O (stereo in doubt) [JR-4015, 5-{3-[6-Amino-9-(5-ethylcarbamoyl-3,4-dihydroxytetrahydrofuran-2-yl)-9H-purin-2-yl]prop-2-ynyl}-2,5-diazabicyclo[2.2.1]heptane-2-carboxylic acid tert-butyl ester]	Ki [1]: 4.25 ± 1 nM
